Literature values, collected in patent US8323615B2, “Methods of processing multi-phasic dispersions” (Baxter International Inc., priority 2008, dated 2012).
Structures can show the parent of a compound that is named as a salt. Where two headings read alike, the source gives them in different places.

Key:
[1] = system: rats; settings: for LD50, cells marked "I": value followed by undefined mark "I"
[2] = ambient temperature such as 20-25° C.
[3] = rats, oral, all at once (acute toxicity), minimal amount reported in the literature

trimethylene glycol
LD50 ([1]; rat, in vivo, po): 4.77 g/kg body weight

NC=O [Formamide]
LD50 [1, 3]: 5.5 g/kg body weight

O=C(C(F)(F)C(F)(F)F)C(F)(C(F)(F)F)C(F)(F)F [Novec ™ 1230, dodecafluoro-2-methylpentan-3-one]
LD50, cells marked "I" [1]: >100 I g/kg body weight

O=C1OCCO1 [ethylene carbonate]
LD50 [1, 3]: 10 g/kg body weight

COC(F)(F)C(F)(F)C(F)(F)F [Novec ™ HFE-7000, 1-methoxyheptafluoropropane]
Sol. (solubility of water in the liquid) ([2]; parts per million by weight): 60 ppm
LD50 [1, 3]: >2 g/kg body weight

CCOC(F)(F)C(F)(F)C(F)(F)C(F)(F)F [Novec ™ HFE-7200, ethoxynonafluorobutane]
Sol. (solubility of water in the liquid) ([2]; parts per million by weight): 92 ppm
LD50 [1, 3]: >5 g/kg body weight

ClCCl [methylene chloride]
Sol. (solubility of water in the liquid) ([2]; unit not given): 1.32 g/100 g
LD50 [1, 3]: 1.6 g/kg body weight

CC(O)CO (stereo not drawn) [propylene glycol]
LD50 [1, 3]: 22 g/kg body weight

FC(C(F)C(F)(F)C(F)(F)F)C(F)(F)F (stereo not drawn) [HFC-4310mee]
Sol. (solubility of water in the liquid) ([2]; parts per million by weight): 400 ppm
LD50, cells marked "I" [1]: 11 I g/kg body weight

ClC=C(Cl)Cl [1,1,2-trichloroethylene]
Sol. (solubility of water in the liquid) ([2]; unit not given): 0.11 g/100 g
LD50 [1, 3]: 2.4 g/kg body weight

Fc1cc(F)c(F)c(F)c1F [pentafluorobenzene]
LD50 ([1]; rat, in vivo, po): 2 g/kg body weight

CC(O)C(=O)O (stereo not drawn) [lactic acid]
LD50 ([1]; rat, in vivo, po): 3.7, 3.5 g/kg body weight
LD50 [1, 3]: 3.7, 3.5 g/kg body weight

tetrahydrofurfuryl alcohol polyethyleneglycol ether [Glycofurol]
Sol. (solubility of water in the liquid) ([2]; in %): >50%
LD50 [1, 3]: 7.8 g/kg body weight

CC(Cl)(Cl)Cl [1,1,1-trichloroethane]
Sol. (solubility of water in the liquid) ([2]; unit not given): 0.15 g/100 g
Sol. (solubility of water in the liquid) ([2]; parts per million by weight): 170 ppm
LD50 [1, 3]: 9.6 g/kg body weight
LD50 ([1]; rats, oral, all at once (acute toxicity), minimal amount reported in the literature, listed as 1,1,1-TCA): 16 g/kg body weight

FC(F)(F)C(F)(F)C(F)(F)C(F)(F)C(F)(F)C(F)(F)F [Perfluorohexane]
Sol. (solubility of water in the liquid) ([2]; unit not given): 0.03 g/100 g
Sol. (solubility of water in the liquid) ([2]; parts per million by weight): 10 ppm
LD50 [1, 3]: 5 g/kg body weight

FC(F)CC(F)(F)F [Genesolv ® S-F, 1,1,1,3,3-pentafluoropropane]
Sol. (solubility of water in the liquid) ([2]; parts per million by weight): 1600 ppm
LD50, cells marked "I" [1]: >200 I g/kg body weight

OCC(F)(F)C(F)(F)F [pentafluoropropyl alcohol]
Sol. (solubility of water in the liquid), in words [2]: soluble
LD50 [1, 3]: 1 g/kg body weight

OCC(F)(F)F [2,2,2-trifluoroethanol]
LD50 [1, 3]: 0.24 g/kg body weight

C[S+](C)[O-] [DMSO, dimethylsulfoxide]
LD50 [1, 3]: 18 g/kg body weight

C1OCOCO1 [Trioxane]
Sol. (solubility of water in the liquid), in words [2]: soluble
LD50 [1, 3]: 3.2 g/kg body weight

OCCOCCO [diethylene glycol]
LD50 [1, 3]: 13 g/kg body weight

COC(=O)C(C)O (stereo not drawn) [lactic acid, methyl ester]
Sol. (solubility of water in the liquid), in words [2]: decomp
LD50 [1, 3]: 2 g/kg body weight

OCc1ccco1 [furfuryl alcohol]
LD50 ([1]; rat, in vivo, po): 0.275 g/kg body weight

CN1CCCC1=O [N-methylpyrrolidone]
Sol. (solubility of water in the liquid) ([2]; in %): 100%
LD50 [1, 3]: 4.15 g/kg body weight

c1ccc(Oc2ccccc2)cc1 [diphenyl ether]
LD50 [1, 3]: 3.37 g/kg body weight

FCC(F)(F)F [Genetron ® HFC-134a]
Sol. (solubility of water in the liquid) ([2]; in %): 0.11%
LD50, cells marked "I" [1]: 62 I g/kg body weight

methoxynonafluorobutane [Novec ™ HFE-7100]
Sol. (solubility of water in the liquid) ([2]; parts per million by weight): 95 ppm
LD50 [1, 3]: >5 g/kg body weight

FC(F)(F)C(F)(F)C(F)(F)C(F)(F)C(F)(F)C(F)(F)F [PF-5060 & PF-5060DL]
LD50 [1, 3]: >5 g/kg body weight

O=Cc1ccco1 [Furfural]
LD50 ([1]; rat, in vivo, po): 0.05 g/kg body weight

O=C1CCCO1 [gamma-butyrolactone]
LD50 ([1]; rat, in vivo, po): 1.54 g/kg body weight

COCCOCCO [diethylene glycol methyl ether]
Sol. (solubility of water in the liquid) ([2]; in %): 100%

CC(F)(Cl)Cl [Genesolv ® 2000 HFC-141b]
LD50 [1, 3]: >5 g/kg body weight

ClC(Cl)(Cl)Cl [carbon tetrachloride]
Sol. (solubility of water in the liquid) ([2]; unit not given): 0.05 g/100 g
LD50 [1, 3]: 2.3 g/kg body weight

FC(F)(F)C(F)(F)C(F)(F)C(F)(F)C(F)(F)N(C(F)(F)C(F)(F)C(F)(F)C(F)(F)C(F)(F)F)C(F)(F)C(F)(F)C(F)(F)C(F)(F)C(F)(F)F [Fluorinert ® FC-70, perfluorotriamylamine]
Sol. (solubility of water in the liquid) ([2]; parts per million by weight): 8 ppm
LD50 [1, 3]: NTO

FC(F)(Cl)C(F)(F)Cl [1,2-dichlorotetrafluoroethane]
Sol. (solubility of water in the liquid) ([2]; unit not given): 0.13 g/100 g
LD50 [1, 3]: 2.25 g/kg body weight

CC1COC(=O)O1 (stereo not drawn) [propylene carbonate]
Sol. (solubility of water in the liquid) ([2]; in %): 23%
LD50 [1, 3]: 29 g/kg body weight

FC(F)(F)C(F)(F)C(F)(F)C(F)(F)N(C(F)(F)C(F)(F)C(F)(F)C(F)(F)F)C(F)(F)C(F)(F)C(F)(F)C(F)(F)F [Fluorinert ® FC-43, perfluorotributylamine]
Sol. (solubility of water in the liquid) ([2]; parts per million by weight): 7 ppm
LD50 [1, 3]: 10 g/kg body weight

CCOC(=O)C(=O)OCC [diethyl oxalate]
LD50 ([1]; rat, in vivo, po): 0.4 g/kg body weight

S=C=S [carbon disulfide]
Sol. (solubility of water in the liquid) ([2]; in %): <1%
LD50 ([1]; rat, in vivo, po): 3.2 g/kg body weight

CCOC(F)(C(F)(F)C(F)(F)C(F)(F)F)C(F)(C(F)(F)F)C(F)(F)F (stereo not drawn) [Novec ™ HFE-7500, 2-trifluoromethyl-3-ethoxydodecafluorohexane]
LD50 [1, 3]: >2 g/kg body weight

OCC(O)CO [Glycerol]
LD50 ([1]; rat, in vivo, po): 13 g/kg body weight

OCCOCc1ccccc1 [ethylene glycol monobenzyl ether]
Sol. (solubility of water in the liquid) ([2]; unit not given): 4 g/100 g
LD50 [1, 3]: 1.19 g/kg body weight

O=S1(=O)CCCC1 [Sulfolane]
LD50 [1, 3]: 1.94 g/kg body weight
